Where two headings read alike, the source gives them in different places.
Legend:
[1] = Experimental: Synthesis, purification, and characterization of selected compounds are summarized below. Stock solutions were prepared fresh daily. All solutions of the test compounds were prepared in dimethyl-sulfoxide (DMSO).
[2] = system: hemagglutinin-mediated hemolysis of human red blood cells; experiment: Hemolysis (HEM) assay; assay type: cell-based, C22 influenza virus; human red blood cells
[3] = target: hemagglutinin (BHA), fusion peptide exposure (Influenza A virus (A/X-31(H3N2)), UniProt P03438); assay type: biochemical, C22 / X31 influenza virus (H3N2); conditions: for inhibition in the SPA assay: 1 μM-1 mM
hemagglutinin (BHA), fusion peptide exposure (Influenza A virus (A/X-31(H3N2)), UniProt P03438), sequence (P03438 whole entry, looked up, the tested form may be a part): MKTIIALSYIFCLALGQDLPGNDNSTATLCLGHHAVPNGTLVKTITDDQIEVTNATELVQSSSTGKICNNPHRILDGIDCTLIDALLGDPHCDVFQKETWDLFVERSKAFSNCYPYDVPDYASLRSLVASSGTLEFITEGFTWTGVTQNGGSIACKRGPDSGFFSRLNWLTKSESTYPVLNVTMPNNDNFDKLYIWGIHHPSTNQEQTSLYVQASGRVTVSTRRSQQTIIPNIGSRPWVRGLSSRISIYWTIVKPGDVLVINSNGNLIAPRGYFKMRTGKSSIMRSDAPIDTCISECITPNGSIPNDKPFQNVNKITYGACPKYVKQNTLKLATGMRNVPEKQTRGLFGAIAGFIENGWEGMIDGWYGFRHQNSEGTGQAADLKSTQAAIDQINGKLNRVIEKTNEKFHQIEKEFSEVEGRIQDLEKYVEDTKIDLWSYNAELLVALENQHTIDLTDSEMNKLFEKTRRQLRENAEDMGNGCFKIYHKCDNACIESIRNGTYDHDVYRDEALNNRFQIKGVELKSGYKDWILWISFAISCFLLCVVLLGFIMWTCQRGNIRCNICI

[4] = system: influenza-mediated syncytia formation, CV-1 cells
low pH BHA = experiment: SPA POST control (nonspecific quenching); parameters: species or system C22 / X31 influenza virus (H3N2)
Experimental: The compounds being screened by SPA are present during scintillation counting. Some of the chemicals, particularly those that are highly colored, quench the detection of radioactivity. A control ("POST") distinguishes whether apparent inhibition arises from inhibition of the conformational change or from nonspecific effects. The test compound is added to a sample of BHA that had previously been acidified and reneutralized. The mixture is then precipitated as usual. Since the BHA treated in this manner is known to be in the low pH conformation, a reduction in measurable cpm compared to controls with ligand omitted proves the compound interferes with the detection system.
^3 H-Leu BHA was diluted to 10,000 cpm (counts per minute) per 200 μl in MSSH buffer (10 mM HEPES, 10 mM MES, 10 mM succinate, 0.10 M NaCl, pH 7.0) containing 0.1% NP40. Protein was incubated with the specified concentration of trial compound for 25 minutes at RT. The same volume of solvent used to dissolve the compound was added to control samples and the final concentration of DMSO in all solutions was 0.67% v/v. A predetermined amount of 1N HAc was added to bring the reactions to the appropriate pH (usually pH 5.0). Following a 5 minute (unless specified otherwise) incubation at RT, reactions were reneutralized with 1N NaOH. For POST controls, compounds were added to the appropriate concentration after reneutralization. 200 μL aliquots of the protein solution were added to scintillation vials containing 100 μl protein A-SPA beads (Amersham), 5% fetal bovine serum (FBS), and antibody. Vials were incubated overnight at RT with constant shaking. Each reaction used 10 μl of fusion peptide antiserum diluted 1:10 with 50% glycerol. Cpm were detected in a Beckman LS3801 scintillation counter without addition of liquid scintillant.
Apparent inhibition due to nonspecific effects was quantitated from the POST controls with the equation:
observed cpm=true cpm*quench factor

C22 virus in MDCK2 cells [5] = experiment: microbe, parasite or virus in culture; conditions: unidentified influenza virus
in vitro = conditions: dog, mdck
Experimental: The ELISA-based assay described below (EIA antiviral assay) was used to measure antiviral activity. Cell viability was measured in parallel to distinguish inhibition of viral replication from toxicity.
Infections of MDCK2 cells with virus, compounds, and DMSO were set up identically as for the EIA assay. Following the 15 hour incubation, test compounds were washed away with PBS. 50 μl of MDCK2 growth media and 25 μl 2 mg/ml 3-(4,5-dimethylthiazol-2-yl)-2,5-diphenyl tetrazolium bromide (Sigma) in PBS were added to each well. Plates were returned to 37° C., 5% CO2 for 4 hrs. Crystals were broken up by vigorous mixing following addition of 80 μl isopropanol/0.04 N HCl. After incubation for 30 mins at RT, OD570 was read on an ELISA reader. % Inhibition is the % reduction of OD570 in the wells infected with compound compared to otherwise identical samples with compound omitted.

hemoglobin = experiment: Hb control (quenching of OD570 of hemoglobin); parameters: species or system human
C22 virus in MDCK2 cells [6] = system: C22 virus in MDCK2 cells
[7] = target: C22 BHA (Influenza A virus (A/X-31(H3N2)), UniProt P03438); assay type: biochemical
C22 BHA (Influenza A virus (A/X-31(H3N2)), UniProt P03438), sequence (P03438 whole entry, looked up): as the sequence (P03438 whole entry, looked up, the tested form may be a part) above

[8] = target: BHA (Influenza A virus (A/X-31(H3N2)), UniProt P03438); assay type: biochemical, C22 / X31 influenza virus (H3N2); conditions: 1 mM
BHA (Influenza A virus (A/X-31(H3N2)), UniProt P03438), sequence (P03438 whole entry, looked up, the tested form may be a part): as above

HIV-1 fusion protein = HIV-1 fusion protein (Human immunodeficiency virus type 1 group M subtype B, UniProt P04578); experiment: Inhibition of fusion mediated by the HIV-1 fusion protein; assay type: cell-based
[9] = unidentified influenza virus, Erythrocyte, Table 7, read-out: HEM, negative log of IC50 (converted)
[10] = unidentified influenza virus, Erythrocyte, log conc -3 (M), read-out: hemolysis % ↓ OD
[11] = unidentified influenza virus, Erythrocyte, log conc -4 (M), read-out: hemolysis % ↓ OD
[12] = MDCK2, 15 h, read-out: infectivity % inhibition
[13] = MDCK2, read-out: IC50 infectivity
[14] = MDCK2, read-out: INF, negative log of IC50 (converted)
[15] = unidentified influenza virus, Erythrocyte, 0.25 h, Table 6, 10^-3 = 1 mM, low pH 15 minutes, read-out: IC50 hemolysis

Compound	IC50 [2, 9]	inhibition at 1000 µM [2, 10]	syncytia, Table 6 [4]	inhibition at 1 µM (C22 virus in MDCK2 cells [5]; [12])	inhibition at 10 µM (C22 virus in MDCK2 cells [5]; [12])	inhibition at 100 µM (C22 virus in MDCK2 cells [5]; [12])	IC50 (C22 virus in MDCK2 cells [5]; [14])	cytotoxicity at 15 h, 1 µM (in vitro)	cytotoxicity at 15 h, 10 µM (in vitro)	cytotoxicity at 15 h, 100 µM (in vitro)	Hb control % ↓ OD (hemoglobin; log conc -3 (M))	solubility at 1 mM [1]	infectivity in Table 6 (C22 virus in MDCK2 cells [6])	INF, words (Table 7) (C22 virus in MDCK2 cells [6])	inhibition of hemolytic activity [2]	other results
O=c1[nH]c(=O)n(O)c2nc[nH]c12 [Compound 113, xanthine 3-N-oxide]	–	–	–	–	–	–	–	–	–	–	–	–	–	–	–	solubility in DMSO ([1]; DMSO): insoluble in DMSO
Oc1ccc(O)c2c1C1CCC2C1 [Compound 111, 3',6'-dihydroxybenzonorbornane]	100 to 1000 µM	36.7 ± 0.6%	morph	21.7 ± 4.9%	57.4 ± 25.2%	102 ± 10.6%	10 µM	1 ± 5.8%	-1.6 ± 0.8%	41 ± 17%	64.9 ± 0.5%	–	–	–	–	inhibition at 100 µM [2, 11]: -6.9 ± 9.3%; activity rank among compounds tested [3]: most active; % inhibition, POST control (low pH BHA; log conc -3 (M)): 13.3%; % inhibition, POST control (low pH BHA; log conc -4 (M)): 9.5%; IC50 (C22 virus in MDCK2 cells [5]; [13]): 10 µM; Hb control % ↓ OD (hemoglobin; log conc -4 (M)): 40.4 ± 1.3%
O=C1c2ccccc2C(=O)c2c(O)ccc(O)c21 [Compound 102, quinizarin]	–	–	–	–	–	–	–	–	–	–	–	only partially soluble at 1 mM	–	–	–	inhibition in the SPA assay [3]: showed no inhibition; activity note in Table 7 [3]: inactive
Oc1ccc(O)c2ccccc12 [Compound 110, 1,4-dihydroxynaphthalene]	–	–	–	-9.8 ± 0.6%	61.1 ± 50.8%	91.9 ± 11.5%	–	5 ± 12.5%	19.2 ± 15.6%	98.3 ± 1.2%	–	only partially soluble at 1 mM	–	–	–	inhibition at 1000 µM (C22 virus in MDCK2 cells [5]; [12]): 102%; cytotoxicity at 15 h, 1000 µM (in vitro): 96.9 ± 0.4%
O=C1C=CC(=O)c2cc3ccccc3cc21 [Compound 114, 1,4-anthraquinone]	–	–	toxic	0.2 ± 0.2%	92.3 ± 12.7%	–	–	-4.3 ± 3.3%	53.7 ± 2.1%	102%	–	–	toxic	toxic	–	–
5,8-dihydro-5,8-methano-1,4-naphthalenediol [Compound 83]	–	–	–	–	–	–	–	–	–	–	16.5 ± 2.1%	–	–	–	inhibits HA-mediated hemolysis	hemolysis % ↓ OD ([2]; log conc -3 (M), 1000 µM): 67.0 ± 15.1%; hemolysis % ↓ OD ([2]; log conc -4 (M), 100 µM): 17.9 ± 20.0%; hemolysis % ↓ OD ([2]; log conc -5 (M), 10 µM): 11.3 ± 10.3%; SPA activity [3]: significant activity; % inhibition, POST (Table 1) (low pH BHA; 1 mM, POST control): 2.1%; infectivity % inhibition (C22 virus in MDCK2 cells [6]; log conc -3 (M)): 51.1 ± 28.3%; infectivity % inhibition (C22 virus in MDCK2 cells [6]; log conc -4 (M)): 33.1 ± 20.2%; infectivity % inhibition (C22 virus in MDCK2 cells [6]; log conc -5 (M)): 8.7 ± 6.7%; infectivity % inhibition (C22 virus in MDCK2 cells [6]; log conc -6 (M)): 12.3 ± 2.5%
Oc1ccc(Cl)c2ccccc12 [Compound 101, 4-chloro-1-naphthol]	–	112%	–	–	–	–	–	–	–	97.4%	93.0%	only partially soluble at 1 mM	–	–	–	inhibition in the SPA assay [3]: showed no inhibition; activity note in Table 7 [3]: inactive
O=C1C=CC(=O)C2C3C=CC(C3)C12 (stereo not shown) [Compound 83K, 4A,5,8,8A-tetrahydro-5,8-methano-1,4-naphthoguinone]	100 to 1000 µM	–	–	–	–	–	–	3.4 ± 10.5%	7.3 ± 8.9%	46.4 ± 15.1%	–	–	toxic	toxic	apparently inhibited hemolytic activity	inhibition at low pH ([7]; 10 seconds at pH 5.0): 73%; inhibition at low pH ([7]; 10 minutes at pH 5.0): 43%; fraction of its maximal inhibition of fusion peptide exposure maintained ([7]; after 10 minutes at pH 5.0, C22 BHA): 60%; reversibility of inhibition by dilution [8]: reversible by dilution; % inhibition, sample (Table 1) [3]: 49.1 ± 15.0%; inhibition at 10^-5 M ([3]; 10^-5 M): negligible inhibition; Inhibition of the POST controls (low pH BHA; 10 mM): 26.4%; Inhibition of the POST controls (low pH BHA; all other concentrations (below 10 mM)): ≤ 4%; % inhibition, POST control (low pH BHA; log conc -3 (M)): -5.3 ± 2.1%; % inhibition, POST control (low pH BHA; log conc -4 (M)): 3.0%; % inhibition, POST control (low pH BHA; log conc -5 (M)): 0.8 ± 12.7%; % inhibition, POST control (low pH BHA; log conc -6 (M)): -6.2%; cytotoxicity at 15 h, 1000 µM (in vitro): 92.9 ± 7.4%
Cc1cc(O)c(C)cc1O [Compound 116, 2,5-dimethylhydroquinone]	> 1000 µM	17.3%	morph	18.8 ± 1.7%	42.8 ± 4.7%	78.1 ± 10%	10 to 100 µM	3.6 ± 4.5%	-9.4 ± 5%	-23.6 ± 5%	44.0%	–	–	–	did not	IC50 [2, 15]: > 1000 µM; inhibition at 100 µM [2, 11]: 7.7%; SPA activity [3]: inactive in the SPA; infectivity inhibition (C22 virus in MDCK2 cells [6]): inhibited infectivity; Hb control % ↓ OD (hemoglobin; log conc -4 (M)): 31.6%
COc1ccc(O)c2ccccc12 [Compound 107, 4-methoxy-1-naphthol]	–	104%	–	–	–	–	–	–	–	96.9%	92.5%	only partially soluble at 1 mM	toxic	toxic	–	hemolysis column of Table 6, words ([2]; Table 6): quench; HEM, words (Table 7) ([2]; Table 7): quench; IC50 (HIV-1 fusion protein): 50 µM
CC(C)(C)c1cc(O)ccc1O [Compound 117, tert-butylhydroquinone]	100 µM	116%	–	7.5 ± 0.1%	22.2 ± 13.2%	53.7 ± 26.4%	10 to 100 µM	-8.4 ± 7.6%	-13.7 ± 2.8%	-26.1 ± 3.3%	17.8%	–	–	–	apparently inhibited hemolytic activity	IC50 [2, 15]: 100 µM; inhibition at 100 µM [2, 11]: 31.6 ± 6.9%; inhibition at 10 µM ([2]; unidentified influenza virus, Erythrocyte, log conc -5 (M), read-out: hemolysis % ↓ OD): 13.9%; activity rank among compounds tested [3]: most active; inhibition of syncytia formation ([4]; 1 μM): Significant inhibition was not observed; inhibition of syncytia formation ([4]; 10 μM): completely abolished the ability of the virus to induce syncytia; % inhibition, POST control (low pH BHA; log conc -3 (M)): -3.4%; % inhibition, POST control (low pH BHA; log conc -4 (M)): 2.9%; % inhibition, POST control (low pH BHA; log conc -5 (M)): 9.1%; % inhibition, POST control (low pH BHA; log conc -6 (M)): 4.7%; Hb control % ↓ OD (hemoglobin; log conc -4 (M)): 9.9 ± 2.8%; Hb control % ↓ OD (hemoglobin; log conc -5 (M)): 7.9%
Cc1c(O)ccc(O)c1C [Compound 99, 2,3-dimethylhydroquinone]	> 1000 µM	28.7%	toxic	26.2 ± 8.6%	35.9 ± 5.2%	114 ± 12%	> 10 µM	-4.2 ± 9%	-10.1 ± 10%	99.4 ± 0.4%	27.8%	–	–	–	did not	IC50 [2, 15]: > 1000 µM; IC50 (C22 virus in MDCK2 cells [5]; [13]): > 10 µM
Oc1ccc(O)c(-c2ccccc2)c1 [Compound 105, phenylhydroquinone]	–	–	–	–	–	–	–	–	–	100%	–	only partially soluble at 1 mM	toxic	toxic	–	–

— US6080791A, “Method of treating a viral condition by inhibiting membrane fusion” (priority 1992, dated 2000)
